In the NIST ThermoML archive (doi:10.1021/je800888n):

How the values were obtained:
[1] = Liquid, Closed cell (Static) method
[2] = excess molar enthalpy (molar enthalpy of mixing); xn = mol fraction of the nth substance listed; settings: 323.15 K, 101 kPa, Liquid, Flow calorimetry

CCCC(=O)O [butanoic acid]
[1]
Settings | vapor or sublimation pressure [kPa]
273.15 K | 0.0137
283.15 K | 0.0324
293.15 K | 0.0725
293.29 K | 0.072
298.15 K | 0.1063
298.25 K | 0.1052
303.15 K | 0.1541
303.28 K | 0.1545
313.15 K | 0.3128
313.22 K | 0.3155
323.15 K | 0.6084
323.2 K | 0.6183
333.15 K | 1.138
333.18 K | 1.153
343.15 K | 2.055
343.18 K | 2.073
353.1 K | 3.582
353.15 K | 3.593
363.08 K | 5.973
363.15 K | 6.095

CCCC(=O)O [butanoic acid] + Cc1ccccc1
[2]
Settings | excess molar enthalpy [kcal/mol]
x1 = 0.0289 | 0.00659
x1 = 0.0576 | 0.00663
x1 = 0.1144 | 0.00368
x1 = 0.1702 | -0.000361
x1 = 0.2251 | -0.00433
x1 = 0.2792 | -0.00731
x1 = 0.3325 | -0.0104
x1 = 0.3849 | -0.0129
x1 = 0.4366 | -0.0149
x1 = 0.4874 | -0.0163
x1 = 0.5375 | -0.0174
x1 = 0.5869 | -0.0176
x1 = 0.6355 | -0.0169
x1 = 0.6834 | -0.0161
x1 = 0.7306 | -0.0147
x1 = 0.7771 | -0.013
x1 = 0.823 | -0.0107
x1 = 0.8682 | -0.00798
x1 = 0.9127 | -0.00545
x1 = 0.9567 | -0.00251
x1 = 0.9784 | -0.00114

Cc1ccccc1 [toluene]
[1]
Settings | vapor or sublimation pressure [kPa]
253.83 K | 0.2392
263.64 K | 0.4837
273.15 K | 0.9082
273.47 K | 0.9254
283.15 K | 1.666
283.32 K | 1.68
293.15 K | 2.911
293.24 K | 2.925
293.26 K | 2.925
298.15 K | 3.785
298.25 K | 3.803
303.15 K | 4.872
303.23 K | 4.894
313.15 K | 7.848
313.19 K | 7.872
313.22 K | 7.874
323.15 K | 12.22
323.22 K | 12.24
333.15 K | 18.45
333.2 K | 18.57
343.15 K | 27.1
343.16 K | 27.2
353.13 K | 38.84
353.15 K | 38.84
363.08 K | 54.13
363.15 K | 54.42
